Laboratory results taken from patent US9301923B2, “Lipids, lipid compositions, and methods of using them” (NOVARTIS AG, priority 2009, dated 2016).

Experiments:
[1] = Particle size and PDI by dynamic light scattering (Malvern Zetasizer); assay type: physicochemical; set-up: Final size: unit not given here; conditions: for Final size: LNP formulation, Table 10
Procedure, shortened: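 Nanoparticles diluted in PBS to a count rate of about 200-400 kcts and measured by dynamic light scattering; size given as intensity-weighted average diameter, with polydispersity index from the same measurement.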

Factor VII = Factor VII activity assay, in vivo liver delivery of FVII siRNA LNP; set-up: species or system mouse; conditions: ~48 h
Procedure, shortened: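 Female CD-1 mice (~25 g) given a single i.v. tail-vein dose of FVII siRNA in LNPs (cationic, stealth, neutral lipids), dosed as mg siRNA/kg. Plasma collected ~48 h post-injection; FVII activity read against a standard curve from pooled vehicle-control plasma.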

[2] = test system: PLK-1 mRNA in Hep3B tumors; test: Hep3B tumor study, PLK-1 mRNA KD in tumor tissue; assay type: in vivo, human; conditions: Hep3B tumor, mouse, i.v., LNP composition as in the source
Description: (§1) Formulated siRNAs are made up of double stranded siRNA sequences specific to a target mRNA sequence, and are in the form of lipid nucleotid particles (LNPs) containing cationic lipids, stealth lipids and neutral lipids, as provided in the Examples below. The siRNA construct for use in targeting the liver is specific to Factor VII. The siRNA construct for use in targeting tumors is specific to PLK1-424, which is published by Judge et al., See, J Clin Invest. 2009 March; 119(3):661-73; doi: 10.1172/JCI37515). • 1. FVII siRNA duplex sequence
Hep3B tumors are established in female nude mice by sc injection of 7×10^6 cells in 100 ul PBS into the left flank. Mice are randomized into treatment groups 10-14 days after seeding as tumors reached an average size of 100 mm^3. siRNA formulated LNP formulations are administered at various dose levels intravenously via the lateral tail vein calculated on a mg siRNAs/kg basis according to individual animal weights (10 ml/kg injection volume). Mice are euthanized by CO2 inhalation at various time points and the tumors are harvested for mRNA quantitation. Lipids with a wide range of pKa (5.3-6.6) are used in the LNP formulations. Tumors are measured in 2 dimensions (width×length) to assess tumor growth using digital calipers. Tumor volume is calculated using the equation [a×b×b/2], where a equals the largest diameter and b equals the smallest diameter.
(§2) About 30-50 mg tumor tissue is homogenized in tissue lysis buffer in a Qiagen homogenizer followed by centrifugation to clarify lysates. Total RNA is isolated using RNeasy isolation kit (catalog number 74106) according to the manufacture's protocol. PLK-1 mRNA is analyzed by quantitative PCR and normalized to human GAPDH. Applied Biosystems human PLK-1 gene expression assay Hs00983229_m1 and human GAPDH endogenous control cat number 4326317E are used for mRNA detection.
(§3) The pKa in all tables refers to the pKa of the cationic lipid. Where multiple doses are indicated (e.g., 3×5), the first number indicates the number of doses given and the second number indicates the amount per dose in mg siRNA (biologically active agent) per kg mouse. In general the multiple doses are administered at 24 hour intervals, and tissues for mRNA quantitation are harvested 24 hours after the last dose.

[3] = pKa of the lipid by TNS fluorescence; assay type: physicochemical; conditions: pKa
Procedure, shortened: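 Lipid dissolved in ethanol (2 mM stock) and measured with TNS across eight buffers of differing pH, in water at standard temperature and pressure. Normalized fluorescence intensity plotted against pH and points joined by a smooth line to derive pKa, precise to about 0.2 units.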

[4] = test system: PLK-1 mRNA in HepG2 tumors; test: HepG2 tumor study, PLK-1 mRNA KD in tumor tissue; assay type: in vivo, human; conditions: Mus musculus, HepG2, iv, 24 h, HepG2 tumor in nude mice, 3 × 3 mg/kg siRNA iv, tumors harvested 24 hrs after the last dose; read-out: PLK1 % inhibition
Description: as §1
HepG2 tumors are established in female nude mice by sc injection of 5×10^6 cells in 100 ul PBS into the left flank. Mice are randomized into treatment groups 10-14 days after seeding as tumors reached an average size of 150 mm^3. siRNA formulated LNP formulations are administered at 3×3 mg/kg dose levels intravenously via the lateral tail vein calculated on a mg siRNAs/kg basis according to individual animal weights (10 ml/kg injection volume). Mice are euthanized by CO2 inhalation at various time points and the tumors are harvested 24 hrs after the last dose for mRNA quantitation. Lipids with a wide range of pKa (5.3-6.6) are used in the LNP formulations. Tumors are measured in 2 dimensions (width×length) to assess tumor growth using digital calipers. Tumor volume is calculated using the equation [a×b×b/2], where a=largest diameter and b=smallest diameter.
as §2, §3

[5] = LNP formulation with PLK1 siRNA, helper, neutral and stealth lipid, molar ratio and N/P as in the table
[6] = lipid/DSPC/CHOL/AVANTI 880150P 50/28/18/4, N/P 3.43
[7] = lipid/no neutral lipid/CHOL/AVANTI 880150P 50/0/46/4, N/P 3.43
[8] = lipid/no neutral lipid/CHOL/GM-020 NOF 60/0/36/4, N/P 3
[9] = dose 1 mg/kg siRNA i.v., lipid/no neutral lipid/CHOL/GM-020 NOF 60/0/36/4, N/P 3

| Structure (SMILES) | Final size (nm) [1, 5] | pKa [3] | Final size (nm) [1, 8] | PDI [1, 8] | FVII inhib % (Factor VII; [9]) | PLK1 inhibition % ([2]; 1 × 1 mg siRNA/kg) | Final size [1] | inhibition at 3 mg/kg [4] | other results |
| --- | --- | --- | --- | --- | --- | --- | --- | --- | --- |
| CCCCC/C=C\C/C=C\CCCCCCCCOCC(Cn1ccnc1)OCCOCCO[C@H]1CC[C@@]2(C)C(=CCC3C2CC[C@@]2(C)C3CC[C@@H]2[C@H](C)CCCC(C)C)C1 (stereo partly drawn) [E0051] | 85.77 nm | 5.73 |  |  |  |  |  |  | Final size (nm) [1, 6]: 157.7 nm; PDI [1, 6]: 0.131; Final size (nm) [1, 7]: 142.9 nm; PDI [1, 7]: 0.057; FVII inhib % (Factor VII; dose 3 mg/kg siRNA i.v., lipid/DSPC/CHOL/AVANTI 880150P 50/28/18/4, N/P 3.43): 17%; FVII inhib % (Factor VII; dose 3 mg/kg siRNA i.v., lipid/no neutral lipid/CHOL/AVANTI 880150P 50/0/46/4, N/P 3.43): 77.5%; PLK1 inhibition % ([2]; 1 × 10 mg siRNA/kg): 17% |
| CCCCCCCC/C=C\CCCCCCCCOCC(CN1CCCCC1)OCCO[C@H]1CC[C@@]2(C)C(=CC[C@H]3[C@@H]4CC[C@H]([C@H](C)CCCC(C)C)[C@@]4(C)CC[C@@H]32)C1 (stereo partly drawn) [E0061] | 90.09 nm | 6.28 | 139.4 nm | 0.073 | 52.6% | 23% |  |  |  |
| CCCCC/C=C\C/C=C\CCCCCCCCOCC(CN1CCCCC1)OCCCOCCCO[C@H]1CC[C@@]2(C)C(=CC[C@H]3[C@@H]4CC[C@H]([C@H](C)CCCC(C)C)[C@@]4(C)CC[C@@H]32)C1 (stereo partly drawn) [E0077] | 120.8 nm | 5.79 | 109.8 nm | 0.127 | 26.8% |  |  |  | PLK1 inhibition % ([2]; 1 × 5 mg siRNA/kg): 77% |
| CCCCCCCC/C=C\CCCCCCCCOCC(CN1CCOCC1)OCCOCCO[C@H]1CC[C@@]2(C)C(=CC[C@H]3[C@@H]4CC[C@H]([C@H](C)CCCC(C)C)[C@@]4(C)CC[C@@H]32)C1 (stereo partly drawn) [E0085] |  | 5.32 |  |  |  |  | 76.8 | 40% | Final size (nm) ([1]; LNP formulation with PLK1 siRNA, helper, neutral and stealth lipid, molar ratio and N/P as in the table, stealth lipid S004, molar ratio 45/43/10/2, N/P 4): 76.8 nm; Final size (nm) ([1]; LNP formulation with PLK1 siRNA, helper, neutral and stealth lipid, molar ratio and N/P as in the table, stealth lipid S004, molar ratio 50/38/10/2, N/P 4): 88.33 nm; Final size (nm) ([1]; LNP formulation with PLK1 siRNA, helper, neutral and stealth lipid, molar ratio and N/P as in the table, stealth lipid S004, molar ratio 50/43/5/2, N/P 4): 87.74 nm; Final size (nm) ([1]; LNP formulation with PLK1 siRNA, helper, neutral and stealth lipid, molar ratio and N/P as in the table, stealth lipid S004, molar ratio 50/48/0/2, N/P 4): 96.42 nm; Final size (nm) ([1]; LNP formulation with PLK1 siRNA, helper, neutral and stealth lipid, molar ratio and N/P as in the table, stealth lipid S004, molar ratio 60/38/2, N/P 4): 90.06 nm; Final size (nm) ([1]; LNP formulation with PLK1 siRNA, helper, neutral and stealth lipid, molar ratio and N/P as in the table, stealth lipid S011, molar ratio 40/48/10/2, N/P 4): 81.83 nm; PLK1 inhibition % ([2]; 1 × 0.1 mg siRNA/kg): 53%; PLK1 inhibition % ([2]; 1 × 2 mg siRNA/kg): 62%; PLK1 inhibition % ([2]; 1 × 5 mg siRNA/kg): 69%; PLK1 inhibition % ([2]; 1 × 10 mg siRNA/kg): 55% |
| CCCCC/C=C\C/C=C\CCCCCCCCOCC(CN1CCC(OC)C1)OCCCOCCCO[C@H]1CC[C@@]2(C)C(=CC[C@H]3[C@@H]4CC[C@H]([C@H](C)CCCC(C)C)[C@@]4(C)CC[C@@H]32)C1 (stereo partly drawn) [E0088] | 146.2 nm | 5.79 | 110.7 nm | 0.080 | 50.8% |  |  |  | PLK1 inhibition % ([2]; 1 × 5 mg siRNA/kg): 71% |
| CCCCC/C=C\C/C=C\CCCCCCCCCCOCC(CN1CCCC1C)OCCCOCCCO[C@H]1CC[C@@]2(C)C(=CC[C@H]3[C@@H]4CC[C@H]([C@H](C)CCCC(C)C)[C@@]4(C)CC[C@@H]32)C1 (stereo partly drawn) [E0095] | 96.09 nm | 5.84 | 125.1 nm | 0.091 | 13% |  |  |  | PLK1 inhibition % ([2]; 1 × 0.1 mg siRNA/kg): 23% |
| CCCCC/C=C\C/C=C\CCCCCCCCCCOCC(CN1CCCCC1)OCCCOCCCO[C@H]1CC[C@@]2(C)C(=CC[C@H]3[C@@H]4CC[C@H]([C@H](C)CCCC(C)C)[C@@]4(C)CC[C@@H]32)C1 (stereo partly drawn) [E0096] |  | 5.77 | 128.8 nm | 0.162 | 14.4% |  | 94.91 | 17% |  |
| CCCCCCCC/C=C\CCCCCCCCOCC(CN1CCCC(C)C1)OCCOCCO[C@H]1CC[C@@]2(C)C(=CC[C@H]3[C@@H]4CC[C@H]([C@H](C)CCCC(C)C)[C@@]4(C)CC[C@@H]32)C1 (stereo partly drawn) [E0119] | 99.37 nm | 5.82 |  |  |  | 40% | 99.37 | 22% |  |
| CCCCC/C=C\C/C=C\CCCCCCCCOC[C@@H](CN1CCC[C@@H]1C)OCCCOC(=O)CCC(=O)O[C@H]1CC[C@@]2(C)C(=CCC3C2CC[C@@]2(C)C3CC[C@@H]2[C@H](C)CCCC(C)C)C1 (stereo partly drawn) [E0161] | 101.4 nm | 6.3 |  |  |  | 45% | 101.4 | 0% |  |
| CCCCC/C=C\C/C=C\CCCCCCCCOC[C@@H](CN1CCC[C@H]1C)OCCCOC(=O)CCC(=O)O[C@H]1CC[C@@]2(C)C(=CCC3C2CC[C@@]2(C)C3CC[C@@H]2[C@H](C)CCCC(C)C)C1 (stereo partly drawn) [E0162] |  | 6.07 |  |  |  |  | 114.4 | 0% |  |
| CCCCCCCC/C=C\CCCCCCCCOCC(CN1CCOCC1)OCCOCCNC(=O)O[C@H]1CC[C@@]2(C)C(=CC[C@H]3[C@@H]4CC[C@H]([C@H](C)CCCC(C)C)[C@@]4(C)CC[C@@H]32)C1 (stereo partly drawn) [E0175] |  | 5.67 |  |  |  |  |  | 49% | Final size ([1]; molar ratio 50/43/5/2, N/P 3.8): 93.51; Final size ([1]; molar ratio 60/38/2, N/P 4): 78.74 |
| CCCCC/C=C\C/C=C\CCCCCCCCOCC(CN1CCOCC1)OCCOCCNC(=O)O[C@H]1CC[C@@]2(C)C(=CC[C@H]3[C@@H]4CC[C@H]([C@H](C)CCCC(C)C)[C@@]4(C)CC[C@@H]32)C1 (stereo partly drawn) [E0176] | 99.14 nm | 5.56 |  |  |  | 36% | 99.14 | 37% |  |
| CCCCCCCC/C=C\CCCCCCCCOCC(CCN1CCOCC1)OCCOCCO[C@H]1CC[C@@]2(C)C(=CCC3C2CC[C@@]2(C)C3CC[C@@H]2[C@H](C)CCCC(C)C)C1 (stereo partly drawn) [E0180] | 77.35 nm |  |  |  |  | 16% | 77.35 | 0% |  |
